# Literature values in patent publication US8399018B2, “Controlled release ion channel modulator compositions and methods for the treatment of otic disorders” (priority 2008, dated 2013).
# How the values were obtained:
# [1] = test system: guinea pigs; conditions: chronic administration
# [2] = test system: V2-R; conditions: infusion into the scala tympani
# [3] = test system: tinnitus; conditions: administered by IV
structure (smiles),measurement,setting,value
"NC(=O)CC[C@@H]1NC(=O)[C@H](Cc2ccccc2)NC(=O)[C@H](Cc2ccc(O)cc2)NC(=O)[C@@H](N)CSSC[C@@H](C(=O)N2CCC[C@H]2C(=O)N[C@@H](CCCN=C(N)N)C(=O)NCC(N)=O)NC(=O)[C@H](CC(N)=O)NC1=O [VP, vasopressin]",induction of endolymphatic hydrops,[1],induces endolymphatic hydrops
Cc1ccccc1C(=O)Nc1ccc(C(=O)N2CCCC(N(C)C)c3ccccc32)cc1 (stereo not drawn) [OPC-31260],reduction of Meniere's disease symptoms,[2],marked reduction
CCN(CC)CC(=O)Nc1c(C)cccc1C [Lidocaine],sufferers in whom noise associated with tinnitus is reduced or eliminated,[3],60-80%
